Key:
Type in all cases: in vivo
[1] = test system: barnyardgrass (Echinochloa crus-galli); experiment: Test G Pre-Emergence Protocol; conditions: Echinochloa crus-galli, pre-emergence, 312 h, evaluated after 13 days
Summary of the method: (§1)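 Visual injury (0–100) at day 13 after a single pre-emergence spray. Rates: 15.625, 62.5, 250 g/ha in acetone–water 50:50 with 0.5% Tween 20. Growth conditions: 24/16° C, 14 h light, 65% humidity.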

[2] = test system: velvetleaf (Abutilon theophrasti); experiment: Test G Pre-Emergence Protocol; conditions: Abutilon theophrasti, pre-emergence, 312 h, evaluated after 13 days
Summary of the method: as §1

[3] = test system: giant foxtail (Setaria faberi); experiment: Test G Pre-Emergence Protocol; conditions: Setaria faberi, pre-emergence, 312 h, evaluated after 13 days
Summary of the method: as §1

[4] = test system: ivy-leaved morning glory (Ipomoea hederacea); experiment: Test G Pre-Emergence Protocol; conditions: Ipomoea, pre-emergence, 312 h, evaluated after 13 days
Summary of the method: as §1

[5] = test system: corn (Zea mays); experiment: Test G Pre-Emergence Protocol; conditions: Zea mays, pre-emergence, 312 h, evaluated after 13 days
Summary of the method: as §1

[6] = test system: redroot pigweed (Amaranthus retroflexus); experiment: Test G Pre-Emergence Protocol; conditions: Amaranthus retroflexus, pre-emergence, 312 h, evaluated after 13 days
Summary of the method: as §1

[7] = test system: barnyardgrass (Echinochloa crus-galli); experiment: Test G Post-Emergence Protocol; conditions: Echinochloa crus-galli, post-emergence, 312 h
Summary of the method: (§2)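 A glasshouse post-emergence test: 8-day-old plants sprayed at 15.625, 62.5 or 250 g/ha, then grown at 24/16 °C day/night with 14 h light and 65% humidity. Damage rated 13 days later, 0–100.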

[8] = test system: velvetleaf (Abutilon theophrasti); experiment: Test G Post-Emergence Protocol; conditions: Abutilon theophrasti, post-emergence, 312 h
Summary of the method: as §2

[9] = test system: giant foxtail (Setaria faberi); experiment: Test G Post-Emergence Protocol; conditions: Setaria faberi, post-emergence, 312 h
Summary of the method: as §2

[10] = test system: ivy-leaved morning glory (Ipomoea hederacea); experiment: Test G Post-Emergence Protocol; conditions: Ipomoea, post-emergence, 312 h
Summary of the method: as §2

[11] = test system: corn (Zea mays); experiment: Test G Post-Emergence Protocol; conditions: Zea mays, post-emergence, 312 h
Summary of the method: as §2

[12] = test system: redroot pigweed (Amaranthus retroflexus); experiment: Test G Post-Emergence Protocol; conditions: Amaranthus retroflexus, post-emergence, 312 h
Summary of the method: as §2

## CN1C[C@@H](c2ccc(C(F)(F)F)cc2)[C@H](C(=O)Nc2n[nH]c(C(F)(F)F)n2)C1=O (racemic) [Compound 1540]
[1]; 15.625 g ai/ha, read-out: Barnyard grass damage rating (100=total damage to plant; 0=no damage to plant)
  pest or weed control at 15.625 g/ha: 0%
[1]; 62.5 g ai/ha, 100=total damage to plant, 0=no damage to plant, read-out: plant damage rating, Barnyardgrass
  pest or weed control at 62.5 g/ha: 0%
[1]; 250 g ai/ha, read-out: Barnyardgrass damage rating (100=total damage to plant; 0=no damage to plant)
  pest or weed control at 250 g/ha: 0%
[2]; 15.625 g ai/ha, read-out: Velvetleaf damage rating (100=total damage to plant; 0=no damage to plant)
  pest or weed control at 15.625 g/ha: 0%
[2]; 62.5 g ai/ha, 100=total damage to plant, 0=no damage to plant, read-out: plant damage rating, Velvetleaf
  pest or weed control at 62.5 g/ha: 0%
[2]; 250 g ai/ha, read-out: Velvetleaf damage rating (100=total damage to plant; 0=no damage to plant)
  pest or weed control at 250 g/ha: 0%
[3]; 15.625 g ai/ha, read-out: Foxtail, Giant damage rating (100=total damage to plant; 0=no damage to plant)
  pest or weed control at 15.625 g/ha: 0%
[3]; 62.5 g ai/ha, 100=total damage to plant, 0=no damage to plant, read-out: plant damage rating, Foxtail, Giant
  pest or weed control at 62.5 g/ha: 0%
[3]; 250 g ai/ha, read-out: Foxtail, Giant damage rating (100=total damage to plant; 0=no damage to plant)
  pest or weed control at 250 g/ha: 0%
[4]; 15.625 g ai/ha, read-out: Morning-glory, Ivy-leaved damage rating (100=total damage to plant; 0=no damage to plant)
  pest or weed control at 15.625 g/ha: 0%
[4]; 62.5 g ai/ha, 100=total damage to plant, 0=no damage to plant, read-out: plant damage rating, Morningglory, Ivy-leaved
  pest or weed control at 62.5 g/ha: 0%
[4]; 250 g ai/ha, read-out: Morningglory, Ivy-leaved damage rating (100=total damage to plant; 0=no damage to plant)
  pest or weed control at 250 g/ha: 0%
[5]; 15.625 g ai/ha, read-out: Corn damage rating (100=total damage to plant; 0=no damage to plant)
  plant injury at 15.625 g/ha: 0%
[5]; 62.5 g ai/ha, 100=total damage to plant, 0=no damage to plant, read-out: plant damage rating, Corn
  plant injury at 62.5 g/ha: 0%
[5]; 250 g ai/ha, read-out: Corn damage rating (100=total damage to plant; 0=no damage to plant)
  plant injury at 250 g/ha: 0%
[6]; 15.625 g ai/ha, read-out: Pigweed, Redroot damage rating (100=total damage to plant; 0=no damage to plant)
  pest or weed control at 15.625 g/ha: 0%
[6]; 62.5 g ai/ha, 100=total damage to plant, 0=no damage to plant, read-out: plant damage rating, Pigweed, Redroot
  pest or weed control at 62.5 g/ha: 0%
[6]; 250 g ai/ha, read-out: Pigweed, Redroot damage rating (100=total damage to plant; 0=no damage to plant)
  pest or weed control at 250 g/ha: 40%
[7]; 15.625 g ai/ha, evaluated after 13 days (100=total damage to plant; 0=no damage to plant), read-out: Barnyardgrass damage rating
  pest or weed control at 15.625 g/ha: 0%
[7]; 62.5 g ai/ha, evaluated after 13 days, read-out: Barnyardgrass damage rating (100=total damage to plant; 0=no damage to plant)
  pest or weed control at 62.5 g/ha: 0%
[7]; 250 g ai/ha, evaluated after 13 days, read-out: damage to plant, Barnyardgrass (100=total damage to plant; 0=no damage to plant)
  pest or weed control at 250 g/ha: 0%
[8]; 15.625 g ai/ha, evaluated after 13 days (100=total damage to plant; 0=no damage to plant), read-out: Velvetleaf damage rating
  pest or weed control at 15.625 g/ha: 0%
[8]; 62.5 g ai/ha, evaluated after 13 days, read-out: Velvetleaf damage rating (100=total damage to plant; 0=no damage to plant)
  pest or weed control at 62.5 g/ha: 0%
[8]; 250 g ai/ha, evaluated after 13 days, read-out: damage to plant, Velvetleaf (100=total damage to plant; 0=no damage to plant)
  pest or weed control at 250 g/ha: 0%
[9]; 15.625 g ai/ha, evaluated after 13 days (100=total damage to plant; 0=no damage to plant), read-out: Foxtail, Giant damage rating
  pest or weed control at 15.625 g/ha: 0%
[9]; 62.5 g ai/ha, evaluated after 13 days, read-out: Foxtail, Giant damage rating (100=total damage to plant; 0=no damage to plant)
  pest or weed control at 62.5 g/ha: 0%
[9]; 250 g ai/ha, evaluated after 13 days, read-out: damage to plant, Foxtail, Giant (100=total damage to plant; 0=no damage to plant)
  pest or weed control at 250 g/ha: 0%
[10]; 15.625 g ai/ha, evaluated after 13 days (100=total damage to plant; 0=no damage to plant), read-out: Morningglory, Ivy-leaved damage rating
  pest or weed control at 15.625 g/ha: 0%
[10]; 62.5 g ai/ha, evaluated after 13 days, read-out: Morningglory, Ivy-leaved damage rating (100=total damage to plant; 0=no damage to plant)
  pest or weed control at 62.5 g/ha: 10%
[10]; 250 g ai/ha, evaluated after 13 days, read-out: damage to plant, Morningglory, Ivy-leaved (100=total damage to plant; 0=no damage to plant)
  pest or weed control at 250 g/ha: 10%
[11]; 15.625 g ai/ha, evaluated after 13 days (100=total damage to plant; 0=no damage to plant), read-out: Corn damage rating
  plant injury at 15.625 g/ha: 0%
[11]; 62.5 g ai/ha, evaluated after 13 days, read-out: Corn damage rating (100=total damage to plant; 0=no damage to plant)
  plant injury at 62.5 g/ha: 10%
[11]; 250 g ai/ha, evaluated after 13 days, read-out: damage to plant, Corn (100=total damage to plant; 0=no damage to plant)
  plant injury at 250 g/ha: 10%
[12]; 15.625 g ai/ha, evaluated after 13 days (100=total damage to plant; 0=no damage to plant), read-out: Pigweed, Redroot damage rating
  pest or weed control at 15.625 g/ha: 0%
[12]; 62.5 g ai/ha, evaluated after 13 days, read-out: Pigweed, Redroot damage rating (100=total damage to plant; 0=no damage to plant)
  pest or weed control at 62.5 g/ha: 0%
[12]; 250 g ai/ha, evaluated after 13 days, read-out: damage to plant, Pigweed, Redroot (100=total damage to plant; 0=no damage to plant)
  pest or weed control at 250 g/ha: 20%
